Numbered stars: 1 amine (or outer) side, 2 acyl side, 3 side chain; on linkers, the order of the positions; unused ones are H or OH. Bridge positions count the residues as written; N and C are the ends. Square brackets hold non-standard residues; d marks the D form. Peptide text beside a SMILES is read from it. X3 = CCc1ccc2c(C[C@H](N[*:1])C(=O)[*:2])c[nH]c2c1; Trp(7-Me) = Cc1cccc2c(C[C@H](N)C(=O)O)c[nH]c12; Abu(4-yl) = O=C([C@H](CC[*:3])N[*:1])[*:2]; 2Nal = N[C@@H](Cc1ccc2ccccc2c1)C(=O)O; AEF = NCCOc1ccc(C[C@H](N)C(=O)O)cc1; αMeF = C[C@](N)(Cc1ccccc1)C(=O)O; Cit = NC(=O)NCCC[C@H](N)C(=O)O; Pen = CC(C)(S)[C@H](N)C(=O)O; αMeK = C[C@](N)(CCCCN)C(=O)O; Aib = CC(C)(N)C(=O)O; Sar = CNCC(=O)O

One may read the IC50 as the point on the concentration scale where inhibition reaches its midpoint.

The target of the first assay is T1, IL-23R (Homo sapiens, UniProt Q5VWK5).
T1 sequence (Q5VWK5 24-629): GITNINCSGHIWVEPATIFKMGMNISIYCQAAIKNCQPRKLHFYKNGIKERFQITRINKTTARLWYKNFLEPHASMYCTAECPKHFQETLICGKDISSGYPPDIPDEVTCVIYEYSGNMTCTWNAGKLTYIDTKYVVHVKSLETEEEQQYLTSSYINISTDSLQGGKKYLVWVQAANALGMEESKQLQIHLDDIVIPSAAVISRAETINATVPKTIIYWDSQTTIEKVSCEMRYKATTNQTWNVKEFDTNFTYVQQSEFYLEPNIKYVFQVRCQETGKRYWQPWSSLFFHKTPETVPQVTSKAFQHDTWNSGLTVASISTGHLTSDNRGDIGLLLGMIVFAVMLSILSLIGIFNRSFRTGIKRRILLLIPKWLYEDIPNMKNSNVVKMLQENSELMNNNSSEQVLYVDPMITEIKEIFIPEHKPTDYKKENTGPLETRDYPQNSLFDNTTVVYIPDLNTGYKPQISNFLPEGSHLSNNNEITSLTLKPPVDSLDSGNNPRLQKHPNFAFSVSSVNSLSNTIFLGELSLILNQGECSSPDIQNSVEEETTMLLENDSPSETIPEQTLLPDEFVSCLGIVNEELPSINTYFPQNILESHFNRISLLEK
As to the kind of experiment: DB cells IL23R pSTAT3 cell assay (pStat3 HTRF). It counts as cell-based.
Conditions: not given
The source says: Human ELISA indicates the IL23-IL23R competitive binding assay described below, Rat ELISA indicates the rat IL-23R competitive binding ELISA assay described below, and pStat3HTRF indicates the DB cells IL-23R pSTAT3 cell assay described below. The peptides depicted in Table E1 are cyclized via a disulfide bridge formed between two Pen residues in these peptides. The peptides depicted in Table E2 are cyclized via a thioether bond between the indicated amino acid residues. Table E2 provides an illustrative structure depicting thioether cyclization, which is indicated in the table by the term “cyclo,” with the cyclic region bracketed immediately following the term “cyclo.” For certain peptides, the residue Abu is present where indicated, whereas in other embodiments, e.g., those related to the non-cyclized form, the Abu may be referred to as a hSer(Cl) or homoSer residue.
DB Cells IL23R pSTAT3 Cell Assay
IL-23 plays a central role in supporting and maintaining Th17 differentiation in vivo. This process is thought to be mediated primarily through the Signal Transducer and Activator of Transcription 3 (STAT3), with phosphorylation of STAT3 (to yield pSTAT3) leading to upregulation of RORC and pro-inflammatory IL-17. This cell assay examines the levels of pSTAT3 in IL-23R-expressing DB cells when stimulated with IL-23 in the presence of test compounds. Serial dilutions of test peptides and IL-23 (Humanzyme #HZ-1261) at a final concentration of 0.5 nM, were added to each well in a 96 well tissue culture plate (Corning #CLS3894). DB cells (ATCC #CRL-2289), cultured in RPMI-1640 medium (Thermo Scientific #11875093) supplemented with 10% FBS, were added at 5×10E5 cells/well and incubated for 30 minutes at 37° C. in a 5% CO2 humidified incubator. Changes in phospho-STAT3 levels in the cell lysates were detected using the Cisbio HTRF pSTAT3 (Tyr705) Cellular Assay Kit (Cisbio #62AT3PEH), according to manufacturer's Two Plate Assay protocol.
Turning to `CCc1ccc2c(C[C@@H]3NC(=O)[C@H]([C@@H](C)O)NC(=O)[C@H](CC(N)=O)NC(=O)[C@@H](NC(C)=O)C(C)(C)SSC(C)(C)[C@@H](C(=O)N[C@@H](Cc4ccc(OCCN)cc4)C(=O)N[C@@H](Cc4ccc5ccccc5c4)C(=O)N[C@@](C)(CCCCN)C(=O)N[C@@H](CCCCNC(C)=O)C(=O)N[C@@H](CC(N)=O)C(=O)N[C@H](CCCCN)C(N)=O)NC(=O)[C@H](CCCCNC(C)=O)NC3=O)c[nH]c2c1` [compound 349] (Ac-[Pen]NT[X3]K(Ac)[Pen][AEF][2Nal][αMeK]K(Ac)N[dK]-NH2; disulfide 1-6), the IC50 was 0.001 to 0.01 µM.
Regarding `CC(=O)NCCCC[C@H](NC(=O)[C@](C)(CC(C)C)NC(=O)[C@H](Cc1c[nH]c2ccc(O)cc12)NC(=O)[C@H](Cc1ccc(OCCN)cc1)NC(=O)[C@H]1NC(=O)[C@H](CCC(N)=O)NC(=O)[C@H](Cc2c[nH]c3ccccc23)NC(=O)[C@H]([C@@H](C)O)NC(=O)[C@H](CC(N)=O)NC(=O)[C@@H](NC(C)=O)C(C)(C)SSC1(C)C)C(=O)N[C@@H](CC(N)=O)C(=O)N[C@@H](CC(N)=O)C(N)=O` [compound 21], the IC50 was over 0.1 µM.
Compound `CC(=O)NCCCC[C@H](NC(=O)[C@](C)(CC(C)C)NC(=O)[C@H](Cc1c[nH]c2ccc(Br)cc12)NC(=O)[C@H](Cc1ccc(OCCN)cc1)NC(=O)[C@H]1NC(=O)[C@H](CCC(N)=O)NC(=O)[C@H](Cc2c[nH]c3ccccc23)NC(=O)[C@H]([C@@H](C)O)NC(=O)[C@H](CC(N)=O)NC(=O)[C@@H](NC(C)=O)C(C)(C)SSC1(C)C)C(=O)N[C@@H](CC(N)=O)C(=O)N[C@@H](CC(N)=O)C(N)=O` [compound 22] registered an IC50 of 0.001 to 0.01 µM.
Still for that read-out and setting: then `COc1cccc2[nH]cc(C[C@H](NC(=O)[C@H](Cc3ccc(OCCN)cc3)NC(=O)[C@H]3NC(=O)[C@H](CCC(N)=O)NC(=O)[C@H](Cc4c[nH]c5ccccc45)NC(=O)[C@H]([C@@H](C)O)NC(=O)[C@H](CC(N)=O)NC(=O)[C@@H](NC(C)=O)C(C)(C)SSC3(C)C)C(=O)N[C@@](C)(CC(C)C)C(=O)N[C@@H](CCCCNC(C)=O)C(=O)N[C@@H](CC(N)=O)C(=O)N[C@@H](CC(N)=O)C(N)=O)c12` [compound 15], with over 0.1 µM.
As to `CC(=O)NCCCC[C@H](NC(=O)[C@](C)(CC(C)C)NC(=O)[C@H](Cc1ccc2ccccc2c1)NC(=O)[C@H](Cc1ccc(OCCN)cc1)NC(=O)[C@H]1NC(=O)[C@H](CCC(N)=O)NC(=O)[C@H](Cc2c[nH]c3ccc(O)cc23)NC(=O)[C@H]([C@@H](C)O)NC(=O)[C@H](CC(N)=O)NC(=O)[C@@H](NC(C)=O)C(C)(C)SSC1(C)C)C(=O)N[C@@H](CC(N)=O)C(=O)N[C@@H](CC(N)=O)C(N)=O` [compound 10], the IC50 was over 0.1 µM.
For `CC(=O)NCCCC[C@H](NC(=O)[C@](C)(CC(C)C)NC(=O)[C@H](Cc1ccc2ccccc2c1)NC(=O)[C@H](Cc1ccc(OCCN)cc1)NC(=O)[C@H]1NC(=O)[C@H](CCC(N)=O)NC(=O)[C@H](Cc2c[nH]c3ccc(Cl)cc23)NC(=O)[C@H]([C@@H](C)O)NC(=O)[C@H](CC(N)=O)NC(=O)[C@@H](NC(C)=O)C(C)(C)SSC1(C)C)C(=O)N[C@@H](CC(N)=O)C(=O)N[C@@H](CC(N)=O)C(N)=O` [compound 1], the IC50 lay within 0.01 to 0.1 µM.

Staying with this assay, now noted: Table E3; DB cells, IL-23 0.5 nM, 30 minutes at 37° C.; read-out: pStat3 HTRF (IC50).
`CC(=O)NCCCC[C@H](NC(=O)[C@](C)(CCCCN)NC(=O)[C@H](Cc1ccc2ccccc2c1)NC(=O)[C@H](Cc1ccc(OCCN)cc1)NC(=O)[C@H]1NC(=O)[C@H](CCCNC(N)=O)NC(=O)[C@H](Cc2c[nH]c3c(C)cccc23)NC(=O)[C@H]([C@@H](C)O)NC(=O)[C@H](CC(N)=O)NC(=O)[C@@H](NC(C)=O)C(C)(C)SSC1(C)C)C(=O)N[C@@H](CC(N)=O)C(=O)NC(C)(C)C(=O)N[C@H](Cc1ccccc1)C(N)=O` [compound 346] (Ac-[Pen]NT[Trp(7-Me)][Cit][Pen][AEF][2Nal][αMeK]K(Ac)N[Aib][dF]-NH2; disulfide 1-6): the IC50 is under 0.001 µM.
Still for that read-out and setting: then `CC(=O)NCCCC[C@@H]1NC(=O)[C@H](Cc2c[nH]c3c(C)cccc23)NC(=O)[C@H]([C@@H](C)O)NC(=O)[C@H](CCC(N)=O)NC(=O)[C@@H](NC(=O)[C@@H](CCCNC(=N)N)NC(C)=O)CCSC[C@@H](C(=O)N[C@@H](Cc2ccc(OCCN)cc2)C(=O)N[C@@H](Cc2ccc3ccccc3c2)C(=O)N[C@@](C)(CCCCN)C(=O)N[C@@H](CCCCNC(C)=O)C(=O)N[C@@H](CC(N)=O)C(=O)N[C@@](C)(Cc2ccccc2)C(N)=O)NC1=O` [compound 327] (Ac-[dR][Abu(4-yl)]QT[Trp(7-Me)]K(Ac)C[AEF][2Nal][αMeK]K(Ac)N[αMeF]-NH2; thioether 2-7), with 0.01 to 0.1 µM.
Consider `CC(=O)NCCCC[C@H](NC(=O)[C@](C)(CCCCN)NC(=O)[C@H](Cc1ccc2ccccc2c1)NC(=O)[C@H](Cc1ccc(OCCN)cc1)NC(=O)[C@H]1NC(=O)[C@H](CCCCNC(=O)[C@H](C)N)NC(=O)[C@H](Cc2c[nH]c3c(C)cccc23)NC(=O)[C@H]([C@@H](C)O)NC(=O)[C@H](CC(N)=O)NC(=O)[C@@H](NC(C)=O)C(C)(C)SSC1(C)C)C(=O)N[C@@H](CC(N)=O)C(=O)N[C@H](CC(C)C)C(N)=O` [compound 314], for which the IC50 was in the range of 0.001 to 0.01 µM.
As for `CC(=O)NCCCC[C@H](NC(=O)[C@](C)(CCCCN)NC(=O)[C@H](Cc1ccc2ccccc2c1)NC(=O)[C@H](Cc1ccc(OCCN)cc1)NC(=O)[C@H]1NC(=O)[C@H](CCCNC(N)=O)NC(=O)[C@H](Cc2c[nH]c3c(C)cccc23)NC(=O)[C@H]([C@@H](C)O)NC(=O)[C@H](CC(N)=O)NC(=O)[C@@H](NC(C)=O)C(C)(C)SSC1(C)C)C(=O)N[C@@H](CC(N)=O)C(=O)NC(C)(C)C(=O)N[C@H](CCCCN)C(N)=O` [compound 344] (Ac-[Pen]NT[Trp(7-Me)][Cit][Pen][AEF][2Nal][αMeK]K(Ac)N[Aib][dK]-NH2; disulfide 1-6), the IC50 is under 0.001 µM.
On the same count and under the same terms, then `CC(=O)NCCCC[C@H](NC(=O)[C@](C)(CCCCN)NC(=O)[C@H](Cc1ccc2ccccc2c1)NC(=O)[C@H](Cc1ccc(OCCN)cc1)NC(=O)[C@H]1NC(=O)[C@H](CCCNC(N)=O)NC(=O)[C@H](Cc2c[nH]c3c(C)cccc23)NC(=O)[C@H]([C@@H](C)O)NC(=O)[C@H](CC(N)=O)NC(=O)[C@@H](NC(C)=O)C(C)(C)SSC1(C)C)C(=O)N[C@@H](CC(N)=O)C(=O)NC(C)(C)C(=O)N[C@H](Cc1ccc(O)cc1)C(N)=O` [compound 347] (Ac-[Pen]NT[Trp(7-Me)][Cit][Pen][AEF][2Nal][αMeK]K(Ac)N[Aib][dY]-NH2; disulfide 1-6), with under 0.001 µM.
For `CC(=O)NCCCC[C@H](NC(=O)[C@](C)(CCCCN)NC(=O)[C@H](Cc1ccc2ccccc2c1)NC(=O)[C@H](Cc1ccc(OCCN)cc1)NC(=O)[C@H]1NC(=O)[C@H](CCCCNC(=O)CC(F)(F)F)NC(=O)[C@H](Cc2c[nH]c3c(C)cccc23)NC(=O)[C@H]([C@@H](C)O)NC(=O)[C@H](CC(N)=O)NC(=O)[C@@H](NC(C)=O)C(C)(C)SSC1(C)C)C(=O)N[C@@H](CC(N)=O)C(=O)N[C@H](CC(C)C)C(N)=O` [compound 319], the IC50 was under 0.001 µM.
In the case of `CC(=O)NCCCC[C@H](NC(=O)[C@](C)(CCCCN)NC(=O)[C@H](Cc1ccc2ccccc2c1)NC(=O)[C@H](Cc1ccc(OCCN)cc1)NC(=O)[C@H]1NC(=O)[C@H](CCCNC(N)=O)NC(=O)[C@H](Cc2c[nH]c3c(C)cccc23)NC(=O)[C@H]([C@@H](C)O)NC(=O)[C@H](CC(N)=O)NC(=O)[C@@H](NC(C)=O)C(C)(C)SSC1(C)C)C(=O)N[C@@H](CC(N)=O)C(=O)N(C)CC(N)=O` [compound 339] (Ac-[Pen]NT[Trp(7-Me)][Cit][Pen][AEF][2Nal][αMeK]K(Ac)N[Sar]-NH2; disulfide 1-6), the IC50 was in the range of 0.001 to 0.01 µM.
As for `CC(=O)N[C@H](CCCNC(=N)N)C(=O)N[C@H]1CCSC[C@@H](C(=O)N[C@@H](Cc2ccc(OCCN)cc2)C(=O)N[C@@H](Cc2ccc3ccccc3c2)C(=O)NC2(C(=O)N[C@@H](CCC(=O)O)C(=O)N[C@@H](CC(N)=O)C(=O)NCCC(N)=O)CCOCC2)NC(=O)[C@H](CCC(N)=O)NC(=O)[C@H](Cc2c[nH]c3c(C)cccc23)NC(=O)[C@H]([C@@H](C)O)NC(=O)[C@H](CCC(N)=O)NC1=O` [compound 203], the IC50 was 0.001 to 0.01 µM.

(Values after patent US20260116921A1, “PEPTIDE INHIBITORS OF INTERLEUKIN-23 RECEPTOR AND THEIR USE TO TREAT INFLAMMATORY DISEASES” (priority 2018, published 2026).)
